From ChEMBL document CHEMBL1157085, “Cytoglobosins A-G, cytochalasans from a marine-derived endophytic fungus, Chaetomium globosum QEN-14” (J Nat Prod, 2010) come the findings set out here.

The source made the active and inactive calls. The calls are words filed in the database; no cut-off is given here. Bounds are passed on as bounds.

One may read the IC50 as the point on the concentration scale where inhibition reaches its midpoint. Low readings indicate greater potency in that assay, high ones weaker potency in that assay.

Holding throughout (type): functional, cell-based
In one assay the test system is P388. Put plainly: Cytotoxicity against mouse P388 cells.
The subject of the next assay is A549. Put plainly: Cytotoxicity against human A549 cells.
The next assay relates to KB. Put plainly: Cytotoxicity against human KB cells.

Take `C=C1[C@@H](C)[C@H]2[C@H](Cc3c[nH]c4ccccc34)NC(=O)[C@]23C(=O)C[C@H]2C(=O)C(O)=C(C)[C@@H]2[C@@H](C)C/C=C/[C@H]3[C@@H]1O` [CYTOGLOBOSIN A]: the outcome with P388 and in the assay on KB was inactive. In the assay on A549, this molecule gave an IC50 greater than 10000 nM.
As for `C=C1[C@@H](C)[C@H]2[C@H](Cc3c[nH]c4ccccc34)NC(=O)[C@]23C(=O)/C=C/[C@H](O)[C@H](O)/C(C)=C/[C@@H](C)C/C=C/[C@H]3[C@@H]1O` [CYTOGLOBOSIN B], the outcome with P388 and in the assay with KB was inactive. The IC50 in the assay with A549 was greater than 10000 nM.
Consider `CC1=C(C)[C@H]2[C@H](Cc3c[nH]c4ccccc34)NC(=O)[C@]23C(=O)/C=C/[C@H](O)[C@H](O)/C(C)=C/[C@@H](C)C/C=C/[C@H]3[C@@H]1O` [CYTOGLOBOSIN C], for which the result with P388 and in the assay on KB was inactive. For the same molecule, the IC50 with A549 amounted to 2260 nM.
Turning to `CC1=C[C@@H]2/C=C/C[C@H](C)/C=C(\C)[C@@H](O)[C@@H](O)/C=C/C(=O)[C@]23C(=O)N[C@@H](Cc2c[nH]c4ccccc24)[C@@H]3[C@@H]1C` [CYTOGLOBOSIN D], the result in the assay on P388 and with KB was inactive. Further, 2550 nM corresponded to half-maximal inhibition in the assay with A549 (IC50).
With `C/C1=C\[C@@H](C)C/C=C/[C@H]2C=C(CO)[C@@H](C)[C@H]3[C@H](Cc4c[nH]c5ccccc45)NC(=O)[C@]32C(=O)CCC(=O)C1=O` [CYTOGLOBOSIN E], the outcome in the assay with P388 and in the assay with KB was inactive. In the assay with A549, this molecule yielded an IC50 greater than 10000 nM.
